Patent EP1179529A1, “NOVEL HYDROXAMIC ACID DERIVATIVES” (Daiichi Fine Chemical Co., Ltd., priority 1999, dated 2000)
Where a name gives a salt, the structure may show the parent alone.

Key:
[1] = molecular target: MMP-3 (Homo sapiens, UniProt P08254); assay: Assay for inhibition of stromelysin; format: biochemical; conditions: human fibroblast stromelysin activated with human plasmin; substrate fluorescein-labeled casein; 37°C, 2 hours, pH 7.8
Method: (§1) Described below are assays for biological activities of the compounds according to the present invention, formulations, dosage forms and dosage levels thereof, and miscellaneous matters. The efficacy of the compounds represented by the formula (I) according to the present invention as inhibitors of human fibroblast collagenase (metalloproteinase involved in the breakdown of tissues) is determined by a procedure based on the method of Y. Murawaki et al., Journal of Hepatology, 18, p328-334 (1993). The efficacy of the compounds (I) of this invention as inhibitors of human fibroblast stromelysin is determined by a procedure based on the method of S. S. Twining, Anal. Biochem., 143, p30 (1984). The assay results obtained are shown hereinbelow, together with biological examples which illustrate embodiments of the assay protocols.
The efficacy of compounds of the present invention to act as inhibitors of human fibroblast stromelysin was determined by the procedure of Twining (Anal. Biochem., 143, p.30, 1984).
Prostromelysin was activated by incubation with 20µ g/ml human plasmin at 37°C for 2 hours, and the reaction was stopped by addition of 2.8 mg/ml aqueous diisopropyl fluorophosphate. The inhibition was assayed using, as a substrate, fluorescein-labeled casein. To a solution of the substrate (1 mg/ml) in a 50 mM Tris-HCl buffer, pH 7.8, containing 10mM aqueous calcium chloride was added the activated stromelysin. The resultant solution was incubated at 37°C for 2 hours. The digestion of the substrate with the enzyme was stopped by addition of 5% trichloroacetic acid. Undigested substrates were precipitated by centrifugation at 3000 x g for 20 minutes. The supernatant was collected, followed by addition of a 0.5M Tris-HCl buffer, pH 8.5. The fluorescence was read using an excitation wavelength of 495 nm and an emission wavelength of 520 nm. The inhibitory potency of the compounds was calculated. IC50 represents the concentration of each test compound requited for 50% inhibition of cleavage of substrates by the enzyme alone. […]

[2] = molecular target: T1, MMP-1 (Homo sapiens, UniProt P03956); assay: Assay for inhibition of collagenase; format: biochemical; conditions: human fibroblast collagenase activated with APMA; substrate fluorescein-labeled bovine type I collagen; 35°C, 2 hours, pH 7.5
T1 sequence (P03956 100-469): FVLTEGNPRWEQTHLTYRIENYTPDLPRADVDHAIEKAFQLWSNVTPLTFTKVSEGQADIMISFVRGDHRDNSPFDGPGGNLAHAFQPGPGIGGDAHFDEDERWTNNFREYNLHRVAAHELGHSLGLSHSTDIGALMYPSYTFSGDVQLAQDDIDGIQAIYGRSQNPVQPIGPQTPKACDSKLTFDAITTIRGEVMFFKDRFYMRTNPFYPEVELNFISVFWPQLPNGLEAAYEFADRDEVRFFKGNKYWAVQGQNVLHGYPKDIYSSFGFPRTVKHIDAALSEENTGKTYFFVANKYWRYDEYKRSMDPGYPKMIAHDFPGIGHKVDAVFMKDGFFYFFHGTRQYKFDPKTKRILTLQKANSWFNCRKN
Method: as §1
The efficacy of compounds of the present invention to act as inhibitors of human fibroblast collagenase was determined by the procedure of Y. Murawaki et al. (Journal of Hepatology, 18, p.328-334, 1993).
Procollagenase was activated by incubation with 2 mM 4-aminophenylmercuric acetate (APMA) at 35°C for 2 hours. The inhibition was assayed using, as a substrate, fluorescein-labeled bovine type I collagen. To a solution of the substrate (0.5 mg/ml) in a 50 mM Tris-HCl buffer, pH 7.5, containing 0.4M aqueous sodium chloride and 10 mM aqueous calcium chloride was added the activated collagenase. The resultant solution was incubated at 35°C for 2 hours. The digestion of the substrate with the enzyme was stopped by addition of 80 mM o-phenanthroline, followed by addition of a porcine elastase solution formed by dissolving 25µ g/ml porcine elastase in the aforementioned Tris-HCl buffer. The mixture was incubated at 37°C for 10 minutes. To the resulting solution was added 70% ethanol, and a 170 mM Tris-HCl buffer, pH 9.5, containing 0.67 M aqueous sodium chloride. Undigested substrates were precipitated by centrifugation at 3000 x g for 20 minutes. The supernatant was collected and the fluorescence was read using an excitation wavelength of 495 nm and an emission wavelength of 520 nm. The inhibitory potency of the compounds was calculated. IC50 represents the concentration of each test compound requited for 50% inhibition of cleavage of substrates by the enzyme alone. The compounds of the present invention have potent inhibitory activities (Table 1).

MMP-3, sequence (P08254 100-477): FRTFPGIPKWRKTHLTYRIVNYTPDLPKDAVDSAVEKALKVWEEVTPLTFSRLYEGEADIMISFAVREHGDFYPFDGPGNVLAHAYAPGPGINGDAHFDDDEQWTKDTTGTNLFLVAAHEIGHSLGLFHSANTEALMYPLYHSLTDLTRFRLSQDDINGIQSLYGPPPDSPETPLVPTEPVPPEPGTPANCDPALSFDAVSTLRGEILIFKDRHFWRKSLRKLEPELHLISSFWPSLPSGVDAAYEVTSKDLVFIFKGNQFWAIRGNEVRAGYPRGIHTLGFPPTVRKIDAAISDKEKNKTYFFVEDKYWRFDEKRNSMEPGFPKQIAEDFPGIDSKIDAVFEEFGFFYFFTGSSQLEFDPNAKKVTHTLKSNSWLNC

Row | Structure (SMILES) | IC50 [1] [µM] | IC50 [2] [µM]
1 | COC(=O)[C@H](Cc1ccc(CNC(C)=N)cc1)NC(=O)[C@H](CC(C)C)[C@H](CCCc1ccccc1)C(=O)NO [Compound No. 9, N^a-[4-(N-Hydroxyamino)-2(R)-isobutyl-3(S)-(3-phenylpropyl)-succinyl]-L-4'-acetimidoyliminomethylphenylalanine methyl ester 1 hydrochloride] | 0.02 | 0.03
2 | COC(=O)[C@H](Cc1ccc(CN)cc1)NC(=O)[C@H](CC(C)C)[C@H](CCCc1ccccc1)C(=O)NO [Compound No. 7, N^a-[4-(N-Hydroxyamino)-2(R)-isobutyl-3(S)-(3-phenylpropyl)-succinyl]-L-4'-aminomethylphenylalanine methyl ester · 1 acetate] | – | 0.167
3 | CC(C)C[C@@H](C(=O)N[C@@H](Cc1ccc(CN)cc1)C(=O)O)[C@H](CCCc1ccccc1)C(=O)NO [Compound No. 11, N^a-[4-(N-Hydroxyamino)-2(R)-isobutyl-3(S)-(3-phenylpropyl)-succinyl]-L-4'-aminomethylphenylalanine] | 0.029 | 0.418
4 | CC(=N)NCc1ccc(C[C@H](NC(=O)[C@H](CC(C)C)[C@H](CCCc2ccccc2)C(=O)NO)C(=O)O)cc1 [Compound No. 10, N^a-[4-(N-Hydroxyamino)-2(R)-isobutyl-3(S)-(3-phenylpropyl)-succinyl]-L-4'-acetimidoyliminomethylphenylalanine · 1 acetate] | 0.07 | 0.5
5 | CC(C)C[C@@H](C(=O)N[C@@H](Cc1ccc(CN)cc1)C(=O)O)[C@H](CCCc1ccccc1)C(=O)NO [Compound No. 8, N^a-[4-(N-Hydroxyamino)-2(R)-isobutyl-3(S)-(3-phenylpropyl)-succinyl]-L-4'-aminomethylphenylalanine · 1 hydrochloride] | – | 0.34
